This is an account of results in article PMC12914920, “Novel glycine amides, semicarbazides and fluoroallylamines as inhibitors of the amine oxidase vascular adhesion protein-1 (VAP-1)” (RSC Medicinal Chemistry, 2026).

The test addresses T1, VAP-1 in human plasma (Homo sapiens, UniProt Q16853).
T1 construct: from tissue; host or cells: human whole plasma from donated blood (Münster University Hospital)
T1 sequence (Q16853 27-763 limits assumed): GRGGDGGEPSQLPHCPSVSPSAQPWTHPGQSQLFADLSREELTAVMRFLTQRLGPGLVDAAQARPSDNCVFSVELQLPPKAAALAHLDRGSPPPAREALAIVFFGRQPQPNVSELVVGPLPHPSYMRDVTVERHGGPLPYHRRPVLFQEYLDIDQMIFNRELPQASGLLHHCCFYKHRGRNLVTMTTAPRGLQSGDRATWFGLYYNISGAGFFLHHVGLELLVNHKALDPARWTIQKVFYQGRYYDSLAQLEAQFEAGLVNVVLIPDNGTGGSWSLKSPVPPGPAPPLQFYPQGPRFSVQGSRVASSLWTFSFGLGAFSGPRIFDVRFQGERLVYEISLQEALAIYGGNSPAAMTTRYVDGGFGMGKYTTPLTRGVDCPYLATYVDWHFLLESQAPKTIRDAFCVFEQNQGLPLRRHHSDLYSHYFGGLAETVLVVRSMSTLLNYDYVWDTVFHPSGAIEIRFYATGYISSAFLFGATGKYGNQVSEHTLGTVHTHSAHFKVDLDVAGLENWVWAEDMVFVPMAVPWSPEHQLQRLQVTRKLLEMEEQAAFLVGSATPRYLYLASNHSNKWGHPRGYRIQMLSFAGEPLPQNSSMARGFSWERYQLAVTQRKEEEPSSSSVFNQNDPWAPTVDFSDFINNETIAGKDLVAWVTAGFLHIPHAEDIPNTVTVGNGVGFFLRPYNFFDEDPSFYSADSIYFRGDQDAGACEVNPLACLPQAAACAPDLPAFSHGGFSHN
Put plainly: Inhibition of VAP-1 activity in human whole plasma. To be noted: 15 min pre-incubation of enzyme and inhibitor. The format is biochemical.

Method: Preparation of human plasma: Human blood was collected in S-Monovette® Lithium-Heparin LH/7.5 mL (Sarstedt, Nümbrecht, Germany) during a blood donation at Münster University Hospital. Each about 5 mL of blood were pipetted into 10 mL Falcon Tubes and subsequently centrifuged at 1500 × g at 20 °C for 15 min. Aliquots of 800 μL plasma were transferred into 2 mL Eppendorf tubes and stored at −80 °C until further use.
Incubation procedure: A solution of the appropriate inhibitor in DMSO (concentration variable) (1.25 μL) was treated with human whole plasma (47.5 μL) and pre-incubated at 37 °C for 15 min. Subsequently, the enzyme reaction was started by the addition of a solution of the substrate 6-(5-phenyl-2H-tetrazol-2-yl)hexan-1-amine[47] (10 mM) in DMSO (1.25 μL). After 2 h of incubation, acetonitrile (50 μL) was added. The samples were cooled in an ice bath for 10 min and centrifuged at 12 000 × g and 10 °C for 10 min. […] Controls with DMSO (1.25 μL) instead of a DMSO solution of the inhibitor (1.25 μL) were prepared in the same manner in parallel (n = 3). Blanks were run by incubating a mixture of the substrate solution in DMSO and DMSO (1.25 μL each) and 47.5 μL of PBS in the same way. […] The peak ratios of enzyme product and internal standard obtained in the absence and presence of a test compound were compared, corrected for the blank value.

In the case of `N#Cc1ccc(-c2nnn(Cc3cccc(CNC(=O)CN)c3)n2)cc1` [Compound 63], the half-inhibitory concentration (IC50) was 320 nM.
